# According to patent US20240228465A1, “SUBSTITUTED PYRIDINE N-OXIDE DERIVATIVES USEFUL AS A FACTOR XIA INHIBITORS” (Janssen Pharmaceutica NV, priority 2021, published 2024):
# Where two headings read alike, the source gives them in different places.
# What was measured:
# Factor XIa = Factor XIa (Homo sapiens, UniProt P03951); assay: Factor XIa inhibition assay utilizing a fluorophore-quencher pair peptide substrate (FLINT); type: biochemical; details: kinetic reads at 5 min intervals over 30 min; 30 min preincubation; read-out: FXIa (KIN) IC50
# Text: Biological Example 1: Factor XIa Inhibition Assay Utilizing a Fluorophore-Quencher Pair Peptide Substrate
# A fluorescence intensity (FLINT) based assay was used to monitor inhibition of Factor XIa. The peptide substrate, 5Fam-KLTRAETV-K5Tamra (purchased from New England Peptide) was chosen based on the […]. Conversion of zymogen […]. The custom peptide used in this assay was based on the Arg146 cleavage site of FXI. The peptide substrate was designed with a fluorophore-quencher pair, where the fluorescence is quenched until FXIa cleaves the 8-mer peptide after the Arg residue. The substrate KM was fit to a substrate inhibition model whereby kcat=0.86 s^−1, KM=12.4 μM, Ki=61.6 μM with an enzymatic efficiency, and kcat/KM=69523 M^−1s^−1.
# The Factor XIa FLINT assay was used with the following 5Fam-KLTRAETV-K5Tamra assay buffer: 50 mM Tris, pH 7.5, 100 mM NaCl, 5 mM CaCl2, 0.1 mg/mL BSA, 0.03% CHAPS. Assay buffer was prepared by mixing all ingredients fresh. 5Fam-KLTRAETV-K5Tamra peptide substrate was first prepared at 10 mM in 100% DMSO, then diluted to 3 mM in 100% DMSO. Assay buffer was then added directly to the 3 mM stock of substrate to prepare the 30 μM 2× working concentration (15 μM final concentration). The 2× Factor XIa stock solution was prepared by diluting 6.562 μM stock in 1× assay buffer for a […].
# Test compound(s) were run in an 11-point, 3-fold serial dilution with a final top compound concentration of 100 nM. Final DMSO in assay was 2%. FXIa was preincubated with compound for 30-minutes and then substrate was added to initiate the reaction. The assay was run with either end point (EP) reads at 30 min or kinetic (KIN) reads at 5 min intervals over 30 minutes. The time course was linear using 100 μM FXIa greater than 30 minutes. More specifically, the assay was run as follows: • 100 nL of 0.01 mM test compound was dispensed into black 384-well non-binding Greiner BioOne 784900 plate for 0.1 μM final concentration; • 5 μL of 1× assay buffer was dispensed to column 24 (low control) and 5 μL 2× Factor XIa solution was dispensed to columns 1-23 (column 23 high control); • the plate was centrifuged with a “cover” plate at 500 rpm for 1 min • the plate was pre-incubated for 30 minutes at room temperature with plate covered; • 5 μL of 2× 5Fam-KLTRAETV-K5Tamra peptide substrate was dispensed into the entire plate, columns 1-24; • the plate was centrifuged with a “cover” plate at 500 rpm for 1 min; • the plate was read monitoring fluorescence intensity on the BMG PHERAStar at room temperature, using fluorescence module 485 nm/520 nm.
# (§1) Percent inhibition (IC50) curves were generated per compound tested, and data was analyzed using a 4-parameter logistic fit using GeneData Screener. The relative fluorescence unit (RFU) values were normalized to percent inhibition using the following equation:
# [formula] • where LC—low control=mean signal of no Factor XIa or 100% inhibition of Factor XIa; HC—high control=mean signal of Factor XIa+5Fam-KLTRAETV-K5Tamra peptide substrate with DMSO only.
# (§2) An 11-point dose response curve for the test compound(s) was generated using GENDATA to determine IC50 value based on the following equation:
# (§3) [formula] • where Y is the % inhibition in the presence of X inhibitor concentration, Top=high control=mean signal of Factor XIa+5Fam-KLTRAETV-K5Tamra peptide substrate with DMSO only; Bottom=low control—mean signal of no Factor XIa or 100% inhibition of Factor XIa; HillSlope—Hill coefficient; and IC50=concentration of compound with 50% inhibition in relation to top/high control.
# Representative compounds of formula (I) of the present invention were tested according to the procedure described in Biological Example 1 and Biological Example 2 above, with results as listed in Table 3, below. […]
# human plasma kallikrein = human plasma kallikrein (Homo sapiens, UniProt P03952); assay: Kallikrein inhibition assay utilizing a quenched AMC peptide substrate (FLINT); type: biochemical; details: read-out: Kallikrein (KIN) IC50
# Experimental: Biological Example 2: Kallikrein Inhibition Assay Utilizing a Quenched AMC Peptide Substrate
# A fluorescence intensity (FLINT) based assay was used to monitor inhibition of human plasma kallikrein. The peptide substrate, Z-Gly-Pro-Arg-AMC (Purchased from Bachem; Catalog #I-1150) was chosen based on its relatively low KM for kallikrein which enables running the assay at lower substrate concentrations to control background fluorescence. The kinetic parameters for this substrate were determined by fitting titration data to the Michaelis-Menten equation yielding a KM=40 μm, kcat=0.76 s^−1, and kcat/KM=18932 M^−1s^−1.
# The Kallikrein FLINT assay was used with the following Z-Gly-Pro-Arg-AMC assay buffer: 50 mM Tris, pH 7.5, 100 mM NaCl, 5 mM CaCl2, 0.1 mg/mL BSA, 0.03% CHAPS. Assay buffer was prepared by mixing all ingredients fresh. 2× Z-Gly-Pro-Arg-AMC peptide substrate was prepared by diluting 10 mM stock into 1× assay buffer for a 100 μM working concentration (50 μM final concentration). The 2× kallikrein stock solution was prepared by diluting 14.76 μM stock in 1× assay buffer for a 4 nM working stock solution (2 nM final concentration).
# Test compound(s) were run in an 11-point, 3-fold serial dilution with a final top compound concentration of 1 μM. Final DMSO in assay was 2%. Plasma kallikrein was pre-incubated for 30-minute with compound and then 50 μM substrate was added to initiate the reaction. The assay was run with either end point (EP) reads at 30 min or kinetic (KIN) reads at 5 min intervals over 30 minutes. The time course was linear using 2 nM kallikrein greater than 30 minutes. More specifically, the assay was run as follows: • 100 nL of 0.1 mM test compound was dispensed into black 384-well non-binding Greiner BioOne 784900 plate for 1 μM final concentration; • 5 μL of 1× assay buffer was dispensed to columns 24 (low control) and 5 μL 2× human kallikrein enzyme solution was dispensed to columns 1-23 (column 23 high control); • the plate was centrifuged with a “cover” plate at 500 rpm for 1 min • the plate was pre-incubated for 30 minutes at room temperature with plate covered; • 5 μL of 2× Z-Gly-Pro-Arg-AMC peptide substrate was dispensed into the entire plate, columns 1-24; • the plate was centrifuged with a “cover” plate at 500 rpm for 1 min; • the plate was read monitoring fluorescence intensity on the BMG PHERAStar at room temperature, using fluorescence module 340 nm/440 nm.
# as §1
# % inhibition=((HC−LC)−(compound−LC)/(HC−LC))*100 • where LC—low control=mean signal of human kallikrein enzyme or 100% inhibition of human kallikrein enzyme; HC—high control=mean signal of Factor XIa+Z-Gly-Pro-Arg-AMC peptide substrate with DMSO only.
# as §2
# as §3, with “Y=Bottom+(Top−Bottom)/(1+10^((log IC50−X)*HillSlope))” for “[formula]”, “human kallikrein enzyme+Z-Gly-Pro-Arg-AMC” for “Factor XIa+5Fam-KLTRAETV-K5Tamra”, “human kallikrein enzyme” for “Factor XIa”, “human kallikrein enzyme;” for “Factor XIa;”
# Representative compounds of formula (I) of the present invention were tested according to the procedure described in Biological Example 1 and Biological Example 2 above, with results as listed in Table 3, below. Results listed in the (ER) column were measured using endpoint reads where a single fluorescence reading was measured for each well at a 30 min timepoint. […]
# [1] = kinetic reads at 5 min intervals over 30 min, 30 min preincubation
# Chain of human plasma kallikrein (P03952 391-638 limits assumed): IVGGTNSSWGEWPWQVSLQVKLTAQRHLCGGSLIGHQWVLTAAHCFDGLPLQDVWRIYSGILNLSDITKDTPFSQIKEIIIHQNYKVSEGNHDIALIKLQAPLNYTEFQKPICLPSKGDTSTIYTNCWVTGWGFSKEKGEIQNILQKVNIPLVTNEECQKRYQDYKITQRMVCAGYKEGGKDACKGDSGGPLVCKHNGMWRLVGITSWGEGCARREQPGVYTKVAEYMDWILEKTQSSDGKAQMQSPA
# Chain of human plasma kallikrein (P03952 20-390 partner limits assumed): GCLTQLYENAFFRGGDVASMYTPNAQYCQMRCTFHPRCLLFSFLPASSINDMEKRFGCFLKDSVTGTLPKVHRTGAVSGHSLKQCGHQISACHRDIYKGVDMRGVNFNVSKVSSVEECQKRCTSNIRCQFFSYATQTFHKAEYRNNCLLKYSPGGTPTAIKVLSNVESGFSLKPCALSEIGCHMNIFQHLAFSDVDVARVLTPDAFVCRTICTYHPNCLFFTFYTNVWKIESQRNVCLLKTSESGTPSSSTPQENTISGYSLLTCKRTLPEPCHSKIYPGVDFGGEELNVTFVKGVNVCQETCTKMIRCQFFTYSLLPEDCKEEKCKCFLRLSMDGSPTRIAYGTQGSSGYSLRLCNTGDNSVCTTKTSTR
# Chain of Factor XIa (P03951 388-625 limits assumed): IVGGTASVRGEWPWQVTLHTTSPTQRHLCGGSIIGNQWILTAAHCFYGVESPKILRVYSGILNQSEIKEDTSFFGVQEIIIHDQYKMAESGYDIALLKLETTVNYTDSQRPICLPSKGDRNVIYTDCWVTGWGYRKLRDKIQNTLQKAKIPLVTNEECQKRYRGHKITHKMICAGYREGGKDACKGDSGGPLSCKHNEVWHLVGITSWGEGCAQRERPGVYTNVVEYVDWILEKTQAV
# Chain of Factor XIa (P03951 19-387 partner limits assumed): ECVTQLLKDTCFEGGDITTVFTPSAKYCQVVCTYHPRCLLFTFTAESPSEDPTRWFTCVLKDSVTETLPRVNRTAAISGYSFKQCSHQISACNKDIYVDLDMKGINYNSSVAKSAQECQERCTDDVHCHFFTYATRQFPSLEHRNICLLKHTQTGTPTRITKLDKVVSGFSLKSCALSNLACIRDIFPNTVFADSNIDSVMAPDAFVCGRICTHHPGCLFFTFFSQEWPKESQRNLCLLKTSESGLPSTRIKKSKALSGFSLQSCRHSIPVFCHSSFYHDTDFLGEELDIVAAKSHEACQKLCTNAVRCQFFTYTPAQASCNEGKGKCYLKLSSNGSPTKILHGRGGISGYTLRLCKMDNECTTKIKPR
IC50 (Factor XIa) [nM],IC50 (human plasma kallikrein; [1]) [µM],"IC50 (human plasma kallikrein; kinetic reads, unit μM) [µM]",SMILES
3.4,0.312,,"Cn1nncc1-c1cn([C@H](CC2CC2)c2ccc(-c3c(-n4cnnn4)ccc(Cl)c3F)c[n+]2[O-])nn1 [T6, (R)-5-(3-Chloro-2-fluoro-6-(1H-tetrazol-1-yl)phenyl)-2-(2-cyclopropyl-1-(3′-methyl-1H,3′H-[4,4′-bi(1,2,3-triazol)]-1-yl)ethyl)pyridine 1-oxide]"
~2.3,~0.334,,"Cn1ncnc1-c1cn(C(CCOC(F)F)c2ccc(-c3c(-n4cc(C(F)(F)F)nn4)ccc(Cl)c3F)c[n+]2[O-])nn1 (stereo not drawn) [T7, 5-(3-Chloro-2-fluoro-6-(4-(trifluoromethyl)-1H-1,2,3-triazol-1-yl)phenyl)-2-(3-(difluoromethoxy)-1-(4-(1-methyl-1H-1,2,4-triazol-5-yl)-1H-1,2,3-triazol-1-yl)propyl)pyridine 1-oxide]"
> 100,,> 1,"[O-][n+]1cc(-c2c(-n3cc(C(F)(F)F)nn3)ccc(Cl)c2F)ccc1[C@H](CCOC(F)F)n1cc(-c2cnnn2C(F)F)nn1 [T9, (S)-5-(3-Chloro-2-fluoro-6-(4-(trifluoromethyl)-1H-1,2,3-triazol-1-yl)phenyl)-2-(3-(difluoromethoxy)-1-(3′-(difluoromethyl)-1H,3′H-[4,4′-bi(1,2,3-triazol)]-1-yl)propyl)pyridine 1-oxide]"
